Structures are written as SMILES. Active and inactive are the calls of the source. The rule behind the calls is not given here.

Here are results for three compounds from ChEMBL document CHEMBL5214948, “Boronic Acid: A Novel Pharmacophore Targeting Src Homology 2 (SH2) Domain of STAT3” (J Med Chem, 2022).

For series [1], the system named is MGC-803. In words: Antiproliferative activity against human MGC-803 cells assessed as reduction in cell viability measured after 72 hrs by CCK-8 assay. Type of series: functional, cell-based. To be noted: MGC-803, 72 h.
Series [2] relates to AGS. As to the kind of experiment: Antiproliferative activity against human AGS cells assessed as reduction in cell viability incubated for 72 hrs by CCK-8 assay. Type of series: functional, cell-based. A general note: Tetrazolium dyes change colour on reduction, which living cells bring about.
The target in series [3] is T1, Signal transducer and activator of transcription 3 (Homo sapiens, UniProt P40763). In words: Binding affinity to full length wild type STAT3-SH2 domain (unknown origin) in human MGC-803 cells assessed as thermal stabilization of protein at 37 to 53 degreeC at 5 uM incubated for 3 hrs by cellular thermal shift assay. Type of series: cell-based.
T1 sequence (P40763 whole entry, the tested form may be a part): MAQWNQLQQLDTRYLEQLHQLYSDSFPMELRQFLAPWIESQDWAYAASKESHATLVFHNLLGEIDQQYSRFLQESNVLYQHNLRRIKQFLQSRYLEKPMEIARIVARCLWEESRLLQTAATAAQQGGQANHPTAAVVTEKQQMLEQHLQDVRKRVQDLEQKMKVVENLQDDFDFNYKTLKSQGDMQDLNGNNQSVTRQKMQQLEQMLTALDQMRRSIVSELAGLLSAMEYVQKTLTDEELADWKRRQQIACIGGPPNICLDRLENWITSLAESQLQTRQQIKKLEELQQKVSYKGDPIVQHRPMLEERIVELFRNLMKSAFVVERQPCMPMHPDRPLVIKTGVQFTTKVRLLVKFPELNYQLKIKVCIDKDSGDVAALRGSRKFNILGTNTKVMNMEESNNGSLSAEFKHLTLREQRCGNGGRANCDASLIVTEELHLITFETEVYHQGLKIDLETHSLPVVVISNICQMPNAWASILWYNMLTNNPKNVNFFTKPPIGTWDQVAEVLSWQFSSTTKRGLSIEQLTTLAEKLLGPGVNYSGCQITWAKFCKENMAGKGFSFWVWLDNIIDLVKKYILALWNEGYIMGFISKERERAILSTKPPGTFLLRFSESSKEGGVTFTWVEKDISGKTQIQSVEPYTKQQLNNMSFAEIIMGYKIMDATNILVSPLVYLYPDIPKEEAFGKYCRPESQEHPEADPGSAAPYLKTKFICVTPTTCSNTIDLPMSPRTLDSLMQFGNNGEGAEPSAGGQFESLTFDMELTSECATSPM
Series [4] concerns MGC-803. In words: Induction of apoptosis in human MGC-803 cells at 5 uM incubated for 72 hrs by V-FITC/PI staining based flow cytometry assay. Format: functional.
A short description of series [5]: Toxicity in BALB/c nude mouse xenografted with MGC-803 cells assessed as effect on body weight at 15 mg/kg, ip measured every day for 20 days. Type of series: organism-based. To be noted: in vivo, 480 h, time 20 day.
The subject of series [6] is MGC-803. In words: Antiproliferative activity against human MGC-803 cells assessed as reduction in cell viability pretreated for 12 hrs followed by compound washout and measured after 24 hrs. Format: functional, cell-based.
Series [7] has as its target T1, Signal transducer and activator of transcription 3. In words: Binding affinity to full length wild type STAT3-SH2 domain (unknown origin) assessed as association constant by SPR analysis.
Series [8] is described as follows: Toxicity in BALB/c nude mouse xenografted with MGC-803 cells assessed as effect on body weight at 5 mg/kg, ip measured every day for 20 days. Format: organism-based. The note with it: in vivo, 480 h, time 20 day.
Series [9] relates to AGS. In words: Induction of apoptosis in human AGS cells at 3 uM incubated for 72 hrs by V-FITC/PI staining based flow cytometry assay. Type of series: functional. For orientation: A flow cytometer gives signals particle by particle.
For series [10], the system named is MGC-803. In words: Antitumor activity against human MGC-803 cells xenografted in BALB/c nude mouse assessed as tumor growth inhibition at 15 mg/kg, ip measured every day for 20 days. Format: functional. Details: scale not given: the % may be the effect or the level left. The note with it: time 20 day. On the technique in general: Xenograft models place foreign cells or tissue in a host animal.

Series [11] deals with T1, Signal transducer and activator of transcription 3. As to the kind of experiment: Inhibition of STAT3 transcriptional activity transfected in HEK293T cells at 3 to 5 uM incubated for 24 hrs by dual-ludferase reporter gene assay. Type of series: cell-based. The note with it: dose 3-5 µM.
Series [12] can be described thus: Antiproliferative activity against […] H9c2 cells assessed as reduction in cell viability incubated for 72 hrs by CCK-8 assay. Format: toxicity, cell-based. The note with it: rat.

For the compound `C[C@H](C(=O)N(Cc1ccc(C2CCCCC2)cc1)c1ccc(B(O)O)cc1)N(C)S(=O)(=O)c1c(F)c(F)c(F)c(F)c1F`, the IC50 (in general, the concentration that inhibits the measured activity by half) in the series with MGC-803 [1] came out at 3.13 µM; with AGS [2], 1.72 µM.

Turning to `CN(CC(=O)N(Cc1ccc(C2CCCCC2)cc1)c1ccc(C(=O)O)cc1)S(=O)(=O)c1c(F)c(F)c(F)c(F)c1F`, the outcome (in series [3]; with MGC-803 [6]) was Active. The Activity with MGC-803 [4] is reported as 5.7%; in [5], “Non-Toxic”; in series [8], “Non-Toxic”; in the series with AGS [9] it was 16.2%; in the series with MGC-803 [10], 49.05%. In addition, the Ka in series [7] is 3.02 10^3/M/s. In [11], the inhibition entry was “Active”. Also, the half-inhibitory concentration (IC50) with MGC-803 [1] came to 8.51 µM; in the series with AGS [2] it was 5.42 µM. Besides, the IC50 at 72 h in [12] is 10.2 µM.

For the compound `O=C([C@H]1CCCN1S(=O)(=O)c1c(F)c(F)c(F)c(F)c1F)N(Cc1ccc(C2CCCCC2)cc1)c1ccc(B(O)O)cc1`, the IC50 in the series with MGC-803 [1] stood at 6.07 µM; with AGS [2] it was 2.78 µM.
